Format in all cases: in vivo, Mice
Data set [1] in a line: Feeding free EPA or LPC-EPA for 15 days: omega 3 fatty acids and arachidonic acid in tissues. The following applies: 1 mg EPA/day for 15 days.
Assay in data set [2]: as above
The following applies: oral. As to the method: Mice were fed oral preparations of free EPA or LPC-EPA at about 1 mg/kg per day for 15 days. The compounds were dispersed in corn oil (80 μl) and fed daily by gavge.

The test system of data set [3] is BDNF. In words: BDNF levels in the brain after feeding free EPA or LPC-EPA. Particulars: 1 mg EPA/day for 15 days. As to the method: The compounds were dispersed in corn oil (80 μl) and fed daily by gavge. Results are shown in e.g. […]. […] See e.g. FIGS. 23A-23C.

With “eicosapenteanoic acid-lysophosphatidylcholine [LPC-EPA]”, in data set [1], the “arachidonic acid in the brain, LPC-EPA versus free EPA” value was “decreased it more”; the “concentration of arachidonic acid in all tissues” value is reported as “decreased”; the “enriching the total omega 3 fatty acids in the heart” value is on record as “equally efficient”. Besides, in data set [2] (15 days), the “all three n-3 fatty acids in the liver” value is “increased”, the “decrease in liver arachidonic acid level” value was ~60% and the “decrease of brain content of arachidonic acid” value was ~40%. Besides, the “increase of total amount of brain Omega 3 fatty acids (EPA+DPA+DHA)” value in data set [2] (about 1 mg/kg per day for 15 days) is listed as “about 90%”. For the same substance, the “increase of brain DHA content” value in data set [2] (about 1 mg/kg per day for 15 days, corn oil gavage) was determined as 60%. Besides, the “BDNF levels in the brain” value in data set [3] is “increased”.

The record behind these values is patent US10555957B2, “Methods and compositions for enriching DHA levels in the brain” (The Board of Trustees of the University of Illinois, a body …, priority 2017, dated 2020).
